Where only a bound is given, the exact number is not on record here.

Holding throughout (type): functional
One test concerns Fusarium proliferatum. The test is described as follows: Antifungal activity against Fusarium proliferatum QDAU-19 assessed as reduction in microbial growth by broth microdilution method. In general terms: Broth dilution looks for growth in wells or tubes with falling amounts of substance.
Test [1] concerns Ceratobasidium cornigerum. Put plainly: Antifungal activity against Ceratobasidium cornigerum QDAU-6 assessed as reduction in microbial growth by broth microdilution method.
Test [2] deals with Botryosphaeria berengeriana. The test is described as follows: Antifungal activity against Physalospora piricola QDAU-15 assessed as reduction in microbial growth by broth microdilution method.
In another test the test system is Coniella diplodiella. The test is described as follows: Antifungal activity against Coniothyrium diplodiella QDAU-7 assessed as reduction in microbial growth by broth microdilution method.
A further test has as its system Fusarium oxysporum. Put plainly: Antifungal activity against Fusarium oxysporum QDAU-8 assessed as reduction in microbial growth by broth microdilution method.
Test [3] concerns Colletotrichum gloeosporioides. The test is described as follows: Antifungal activity against Colletotrichum gloeosporioides QDAU-2 assessed as reduction in microbial growth by broth microdilution method.
The subject of another test is Alternaria brassicae. Put plainly: Antifungal activity against Alternaria brassicae QDAU-16 assessed as reduction in microbial growth by broth microdilution method.
Test [4] has as its system Colletotrichum gloeosporioides. Put plainly: Antifungal activity against Colletotrichum gloeosporioides QDAU-17 assessed as reduction in microbial growth by broth microdilution method.
The subject of the next test is Fusarium graminearum. The test is described as follows: Antifungal activity against Fusarium graminearum QDAU-4 assessed as reduction in microbial growth by broth microdilution method.
For the next test, the system named is Penicillium digitatum. The test is described as follows: Antifungal activity against Penicillium digitatum QDAU-14 assessed as reduction in microbial growth by broth microdilution method.
Another test has as its system Curvularia spicifera. The test is described as follows: Antifungal activity against Curvularia spicifera QDAU-18 assessed as reduction in microbial growth by broth microdilution method.
Another test deals with Micrococcus luteus. Put plainly: Antibacterial activity against Micrococcus luteus QDIO-3 assessed as reduction in microbial growth by broth microdilution method.
The test system of another test is Vibrio anguillarum. Put plainly: Antibacterial activity against Vibrio anguillarum QDIO-6 assessed as reduction in microbial growth by broth microdilution method.
The subject of another test is Edwardsiella tarda. The test is described as follows: Antibacterial activity against Edwardsiella tarda QDIO-2 assessed as reduction in microbial growth by broth microdilution method.
The test system of another test is Escherichia coli. Put plainly: Antibacterial activity against Escherichia coli EMBLC-1 assessed as reduction in microbial growth by broth microdilution method.
A further test deals with Vibrio harveyi. Put plainly: Antibacterial activity against Vibrio harveyi QDIO-7 assessed as reduction in microbial growth by broth microdilution method.
In the next test the test system is Pseudomonas aeruginosa. The test is described as follows: Antibacterial activity against Pseudomonas aeruginosa QDIO-4 assessed as reduction in microbial growth by broth microdilution method.
The next test concerns Vibrio vulnificus. Put plainly: Antibacterial activity against Vibrio vulnificus QDIO-10 assessed as reduction in microbial growth by broth microdilution method.

Usually MIC stands for the smallest concentration in the dilution series that meets the test's criterion for growth inhibition. In the case of `C[C@@H]1[C@H](O)[C@@H](C)/C=C/C=C/C=C/C=C/C=C/C=C/C=C/[C@H](O[C@@H]2O[C@H](C)[C@@H](O)[C@H](N)[C@@H]2O)C[C@@H]2O[C@](O)(C[C@@H](O)C[C@@H](O)[C@H](O)CC[C@@H](O)C[C@@H](O)CC(=O)O[C@H]1C)C[C@H](O)[C@H]2C(=O)O` [AMPHOTERICIN B], the MIC in the test with Fusarium proliferatum is 1 µg/mL; in test [1] it was 8 µg/mL; in test [2], 8 µg/mL; in the test on Coniella diplodiella, 0.5 µg/mL; in the test with Fusarium oxysporum it was 4 µg/mL; in test [3], 2 µg/mL. Besides, the MIC was determined as 0.5 µg/mL in the test on Alternaria brassicae; 8 µg/mL in test [4]; 2 µg/mL with Fusarium graminearum; 4 µg/mL with Penicillium digitatum; 0.5 µg/mL in the test with Curvularia spicifera.
Turning to `C=C1CC[C@@]2(O)C[C@@H]1[C@]2(C)[C@H](OC(C)=O)C(=O)C=C(C)C`, the MIC was 2 µg/mL with Fusarium proliferatum; 8 µg/mL in test [1]; 32 µg/mL in test [2]; 4 µg/mL in the test on Coniella diplodiella; 16 µg/mL in the test on Fusarium oxysporum; 4 µg/mL in test [3]. Moreover, the MIC amounted to 4 µg/mL in the test with Alternaria brassicae; 16 µg/mL in [4]; 2 µg/mL in the test with Fusarium graminearum; 8 µg/mL in the test on Penicillium digitatum; 1 µg/mL in the test with Curvularia spicifera.
Regarding `C=C1CC[C@@]2(O)C[C@@H]1[C@]2(C)[C@@H](CC=C(C)C)OC(C)=O`, the MIC with Fusarium proliferatum is 2 µg/mL; in test [1] it was 4 µg/mL; in test [2] it was 32 µg/mL; with Coniella diplodiella, 4 µg/mL; in the test on Micrococcus luteus it was greater than 64 µg/mL; in the test with Fusarium oxysporum it was 16 µg/mL. For the same compound, the MIC in [3] was 4 µg/mL; with Vibrio anguillarum, greater than 64 µg/mL; in the test with Alternaria brassicae it was 8 µg/mL; in the test with Edwardsiella tarda it was 4 µg/mL; in test [4] it was 16 µg/mL; in the test on Escherichia coli, 8 µg/mL. Also, the MIC in the test with Fusarium graminearum was 2 µg/mL; in the test with Penicillium digitatum, 8 µg/mL; with Vibrio harveyi, 16 µg/mL; with Curvularia spicifera, 1 µg/mL; in the test on Pseudomonas aeruginosa, greater than 64 µg/mL; in the test on Vibrio vulnificus, greater than 64 µg/mL.
`C=C1CC[C@@]2(O)C[C@@H]1[C@]2(C)CC(=O)C=C(C)C`: the minimum inhibitory concentration (MIC) came to 8 µg/mL in the test with Fusarium proliferatum; 4 µg/mL in test [1]; 16 µg/mL in [2]; 4 µg/mL with Coniella diplodiella; 16 µg/mL in the test on Micrococcus luteus; 8 µg/mL in the test on Fusarium oxysporum. The MIC was 8 µg/mL in test [3]; greater than 64 µg/mL with Vibrio anguillarum; 1 µg/mL in the test with Alternaria brassicae; greater than 64 µg/mL in the test on Edwardsiella tarda; 8 µg/mL in [4]; greater than 64 µg/mL in the test with Escherichia coli. In addition, the MIC is 4 µg/mL in the test on Fusarium graminearum; 4 µg/mL in the test on Penicillium digitatum; 16 µg/mL in the test with Vibrio harveyi; 2 µg/mL with Curvularia spicifera; 32 µg/mL with Pseudomonas aeruginosa; 8 µg/mL in the test with Vibrio vulnificus.
Take `O=C(N[C@H](CO)[C@H](O)c1ccc([N+](=O)[O-])cc1)C(Cl)Cl` [CHLORAMPHENICOL]: the MIC in the test on Micrococcus luteus was 0.5 µg/mL; in the test with Vibrio anguillarum it was 0.5 µg/mL; in the test with Edwardsiella tarda, 2 µg/mL; in the test with Escherichia coli, 0.5 µg/mL; in the test on Vibrio harveyi, 0.5 µg/mL; with Pseudomonas aeruginosa, 2 µg/mL. The MIC in the test with Vibrio vulnificus is 2 µg/mL.
Turning to `C=C1CC[C@H](O)C[C@@H]1[C@@](C)(O)C(=O)/C=C/C(C)(C)O`, the MIC in the test on Micrococcus luteus was greater than 64 µg/mL; with Vibrio anguillarum, greater than 64 µg/mL; with Edwardsiella tarda it was 16 µg/mL; with Escherichia coli, greater than 64 µg/mL; in the test with Vibrio harveyi, greater than 64 µg/mL; in the test on Pseudomonas aeruginosa, greater than 64 µg/mL. In addition, the MIC in the test with Vibrio vulnificus stood at 64 µg/mL.
Consider `C=C1CC[C@H](O)C[C@@H]1[C@H](C)[C@H](O)C(=O)C=C(C)C`, for which the MIC is greater than 64 µg/mL in the test with Micrococcus luteus; 64 µg/mL in the test on Vibrio anguillarum; greater than 64 µg/mL with Edwardsiella tarda; greater than 64 µg/mL in the test with Escherichia coli; greater than 64 µg/mL with Vibrio harveyi; greater than 64 µg/mL in the test on Pseudomonas aeruginosa. The MIC in the test on Vibrio vulnificus worked out at 2 µg/mL.
As to `C=C1[C@H](O)C[C@H]2C[C@@H]1[C@](C)([C@H](O)CC=C(C)C)O2`, the MIC with Fusarium proliferatum was 16 µg/mL; in [1], 4 µg/mL; in test [2] it was 8 µg/mL; with Coniella diplodiella, 4 µg/mL; with Fusarium oxysporum it was 2 µg/mL; in [3], 4 µg/mL. Further, the MIC in the test with Alternaria brassicae amounted to 8 µg/mL; in test [4], 2 µg/mL; in the test on Fusarium graminearum, 2 µg/mL; in the test with Penicillium digitatum, 8 µg/mL; in the test with Curvularia spicifera, 8 µg/mL.
On to `C=C1CC[C@@]2(C[C@@H](O)C(=O)OC)C[C@@H]1[C@](C)([C@H](O)CC=C(C)C)O2`, for which the MIC is 4 µg/mL in the test with Fusarium proliferatum; 64 µg/mL in test [1]; 64 µg/mL in [2]; 4 µg/mL in the test on Coniella diplodiella; greater than 64 µg/mL with Micrococcus luteus; 16 µg/mL in the test on Fusarium oxysporum. Moreover, the MIC in test [3] is 4 µg/mL; in the test on Vibrio anguillarum, 16 µg/mL; in the test with Alternaria brassicae, 8 µg/mL; with Edwardsiella tarda it was greater than 64 µg/mL; in test [4], 64 µg/mL; in the test with Escherichia coli it was greater than 64 µg/mL. The MIC with Fusarium graminearum is 4 µg/mL; in the test with Penicillium digitatum, 8 µg/mL; in the test on Vibrio harveyi, greater than 64 µg/mL; with Curvularia spicifera, 4 µg/mL; in the test with Pseudomonas aeruginosa, greater than 64 µg/mL; with Vibrio vulnificus, 64 µg/mL.
For the compound `C=C1C(=O)C[C@@]2(C)C[C@@H]1[C@](C)([C@H](O)CC=C(C)C)O2`, the MIC with Fusarium proliferatum was determined as 16 µg/mL; in [1], 8 µg/mL; in test [2], 4 µg/mL; in the test on Coniella diplodiella, 4 µg/mL; in the test with Fusarium oxysporum, 4 µg/mL; in [3], 4 µg/mL. Further, the MIC in the test on Alternaria brassicae stood at 4 µg/mL; in test [4], 8 µg/mL; in the test with Fusarium graminearum it was 1 µg/mL; in the test on Penicillium digitatum, 4 µg/mL; in the test with Curvularia spicifera, 8 µg/mL.

For the origin of these results see ChEMBL document CHEMBL5634182, “Antifungal Pseuboyenes A-J, Bergamotene-Derived Sesquiterpenoids from a Cold-Seep-Derived Pseudallescheria boydii” (J Nat Prod, 2024).
